Values quoted from earlier work in patent US20100221818A1, “Device for the extemporaneous preparation of active preparations” (ALAXIA, priority 2009, published 2010).

Conditions: in the absence of peroxidase and/or of hydrogen peroxide

N#CSO [hypothiocyanite]
half-life: approximately 24 hours
